Structures can show the parent of a compound that is named as a salt.
Tested on: formaldehyde-induced pain
Assay: formaldehyde-induced pain test in the mouse (formalin test)
Assay type: in vivo
Conditions: formaldehyde 0.92% in paw, licking time 15 to 30 min
Description: The compounds of the present invention were evaluated for their analgesic property in the formaldehyde-induced pain test in the mouse (Shibata, M., Ohkubo, T., Takahashi, H. & R. Inoki. Modified formalin test: characteristic biphasic pain response. Pain, 38. 347-352). In summary, an administration of formaldehyde (0.92% in physiological serum) is made in the front paw and the licking time, which reflects the intensity of the pain, is recorded from 0 to 5 min (1st phase) and from 15 to 30 min (2nd phase) after the injection. The percentage inhibition of the second phase of licking induced by the formaldehyde is given, for some compounds according to the invention, in the following Table: […]

Compound	% inhibition of the 2nd licking phase (10 mg/kg s.c.)	% inhibition of the 2nd licking phase (30 mg/kg s.c.)	further results
Cc1c(Cl)ccc(S(=O)(=O)N(CCc2ccccc2)CC(=O)NCC(=O)N(CCC2CCNCC2)Cc2ccc(C(=N)N)cc2)c1Cl.O=C(O)C(F)(F)F.O=C(O)C(F)(F)F [Example 24, N-[2-[[[4-(aminoiminomethyl)phenyl]methyl](4-piperidinylethyl)amino]-2-oxoethyl]-2-[[(2,4-dichloro-3-methylphenyl)sulphonyl](2-phenylethyl)-amino]acetamide, bis Trifluoroacetate]	76%		
N-[2-[(4-aminobutyl)(4-piperidinylmethyl)amino]-2-oxoethyl]-2-[[(2,4-dichloro-3-methylphenyl)sulphonyl](2-phenylethyl)amino]acetamide, Bis Trifluoroacetate [Example 25]		87%	
Cc1c(Cl)ccc(S(=O)(=O)N(CCc2ccccc2)CC(=O)NCC(=O)N(CCCCN2CCCC2)CCCc2cnc[nH]2)c1Cl [Example 82, 2-[[(2,4-dichloro-3-methylphenyl)sulphonyl](2-phenylethyl)amino]-N-[2-[[3-(1H-imidazol-5-yl)propyl][4-(1-pyrrolidinyl)butyl]amino]-2-oxo-ethyl]acetamide, Dihydrochloride]			% inhibition of the 2nd licking phase (10 mg/kg i.p.): 63%
N-[2-[[[4-(aminoiminomethyl)phenyl]methyl][3-(dimethylamin)propyl]amino]-2-oxoethyl]-2-[[(2,4-dichloro-3-methylphenyl)sulphonyl](2-phenylethyl)amino]acetamide, Dihydrochloride [Example 23]		98%	
Cc1c(Cl)ccc(S(=O)(=O)N(CCc2ccccc2)CC(=O)NCC(=O)N(CCCN(C)C)Cc2ccc(C3=NCCN3)cc2)c1Cl [Example 35, 2-[[(2,4-dichloro-3-methylphenyl)sulphonyl](2-phenylethyl)amino]-N-[2-[[[4-(4,5-dihydro-1H-imidazol-2-yl)phenyl]methyl][3-(dimethylamino)propyl]amino]-2-oxoethyl]acetamide, Dihydrochloride]	92%		
